In test [1] the target is human carbonic anhydrase II (hCA 2) (Homo sapiens, UniProt P00918). Briefly: Human Carbonic Anhydrase II inhibition. In kind it is biochemical.
Test [2] is described as follows: oral biological activity: % uterine weight increase compared to vehicle. The class given is in vivo, rat. The following applies: for change in vivo at 0.03 mg / change in vivo at 0.01 mg: Rattus norvegicus, oral; for change in vivo at 0.03 mg: 30.0 μg; for change in vivo at 0.01 mg: 10.0 μg. The method, then: Exemplary compounds were tested for: oral biological activity (Table 1); binding to human carbonic anhydrase II (hCA 2) (Table 2); and, for some compounds enzymatic saponification (Table 3).

Like-named read-outs stand apart in the source and are kept apart here. Where only a bound is given, the exact number is not on record here.

Usually IC50 stands for the concentration at which inhibition is half-maximal.

Regarding `C[C@]12CCC3c4ccc(O)cc4CCC3C1CC[C@@H]2OC(=O)c1cccc(S(N)(=O)=O)c1` (stereo partly drawn) [Compound 1A, (13S, 17S)-3-hydroxy-13-methyl-7,8,9,11,12,13,14,15,16,17-decahydro-6H-cyclopenta[a]phenanthren-17-yl 3-sulfamoylbenzoate, reference compound], the concentration for half-maximal inhibition (IC50) in test [1] (read-out: hCAII (IC50 nM)) came out at 258 nM. The compound further had a change in vivo at 0.03 mg in test [2] of 212%.

As to `C[C@]12CCC3c4ccc(O)cc4CCC3C1CC[C@@H]2OC(=O)COC(=O)c1cccc(S(N)(=O)=O)c1` (stereo partly drawn) [Compound 2A, 2-((13S,17S)-3-hydroxy-13-methyl-7,8,9,11,12,13,14,15,16,17-decahydro-6H-cyclopenta[a]phenanthren-17-yloxy)-2-oxoethyl 3-sulfamoylbenzoate], in test [1] (read-out: hCAII (IC50 nM)), the concentration for half-maximal inhibition (IC50) stood at 3500 nM.

Regarding `C[C@]12CCC3c4ccc(O)cc4CCC3C1CC[C@@H]2OC(=O)COC(=O)c1ccc(S(N)(=O)=O)cc1` (stereo partly drawn) [Compound 3A, 2-((13S,17S)-3-hydroxy-13-methyl-7,8,9,11,12,13,14,15,16,17-decahydro-6H-cyclopenta[a]phenanthren-17-yloxy)-2-oxoethyl 4-sulfamoylbenzoate], the half-inhibitory concentration (IC50) in test [1] (read-out: hCAII (IC50 nM)) was found to be 250 nM. The change in vivo at 0.03 mg in test [2] stood at 197%.

For the compound `C[C@]12CCC3c4ccc(O)cc4CCC3C1CC[C@@H]2OC(=O)/C=C/C(=O)NCc1ccc(S(N)(=O)=O)cc1` (stereo partly shown) [Compound 4A], the IC50 in test [1] (read-out: hCAII (IC50 nM)) was 450 nM. This compound returned a change in vivo at 0.03 mg in test [2] of 164%.

On to `C[C@]12CCC3c4ccc(O)cc4CCC3C1CC[C@@H]2OC(=O)CNC(=O)c1cccc(S(N)(=O)=O)c1` (stereo partly drawn) [Compound 5A, (13S,17S)-3-hydroxy-13-methyl-7,8,9,11,12,13,14,15,16,17-decahydro-6H-cyclopenta[a]phenanthren-17-yl 2-(3-sulfamoylbenzamido)-acetate], for which the IC50 in test [1] (read-out: hCAII (IC50 nM)) was found to be 42 nM. For the same compound, in test [2], the change in vivo at 0.03 mg turned out to be 171%.

Consider `C[C@]12CCC3c4ccc(O)cc4CCC3C1CC[C@@H]2OC(=O)CNC(=O)c1ccc(S(N)(=O)=O)cc1` (stereo partly drawn) [Compound 6A, (13S,17S)-3-hydroxy-13-methyl-7,8,9,11,12,13,14,15,16,17-decahydro-6H-cyclopenta[a]phenanthren-17-yl 2-(4-sulfamoylbenzamido)acetate], for which, in test [1] (read-out: hCAII (IC50 nM)), the IC50 amounted to 65 nM. Besides, in test [2], the change in vivo at 0.01 mg is 152%.

Regarding `C[C@]12CCC3c4ccc(O)cc4CCC3C1CC[C@@H]2OC(=O)[C@@H]1CCCN1C(=O)c1cccc(S(N)(=O)=O)c1` (stereo partly drawn) [Compound 7A, (2S)-((13S,17S)-3-hydroxy-13-methyl-7,8,9,11,12,13,14,15,16,17-decahydro-6H-cyclopenta[a]-phenanthren-17-yl) 1-(3-sulfamoylbenzoyl)pyrrolidine-2-carboxylate], the 50% inhibitory concentration (IC50) in test [1] (read-out: hCAII (IC50 nM)) was found to be 300 nM. Also, the change in vivo at 0.01 mg in test [2] came to 108%.

Take `C[C@]12CCC3c4ccc(O)cc4CCC3C1CC[C@@H]2OC(=O)C(F)(F)S(N)(=O)=O` (stereo partly drawn) [Compound 9A, (13S,17S)-3-hydroxy-13-methyl-7,8,9,11,12,13,14,15,16,17-decahydro-6H-cyclopenta[a]phenanthren-17-yl 2,2-difluoro-2-sulfamoylacetate]: the IC50 in test [1] (read-out: hCAII (IC50 nM)) is 85 nM. This compound also came in with a change in vivo at 0.01 mg in test [2] of 218%.

Regarding `C[C@]12CCC3c4ccc(O)cc4CCC3C1CC[C@@H]2OC(=O)CS(N)(=O)=O` (stereo partly drawn) [Compound 10A, (13S,17S)-3-hydroxy-13-methyl-7,8,9,11,12,13,14,15,16,17-decahydro-6H-cyclopenta[a]phenanthren-17-yl 2-sulfamoylacetate], the IC50 in test [1] (read-out: hCAII (IC50 nM)) came to 510 nM. The change in vivo at 0.01 mg in test [2] was 177%.

Turning to `C[C@H](NC(=O)c1cccc(S(N)(=O)=O)c1)C(=O)O[C@H]1CCC2C3CCc4cc(O)ccc4C3CC[C@@]21C` (stereo partly drawn) [Compound 11A, (2S)-((13S,17S)-3-hydroxy-13-methyl-7,8,9,11,12,13,14,15,16,17-decahydro-6H-cyclopenta[a]-phenanthren-17-yl) 2-(3-sulfamoylbenzamido)propanoate], the IC50 in test [1] (read-out: hCAII (IC50 nM)) came to 310 nM. In test [2], this compound came in with a change in vivo at 0.01 mg of 170%.

In the case of `C[C@H](NC(=O)c1ccc(S(N)(=O)=O)cc1)C(=O)O[C@H]1CCC2C3CCc4cc(O)ccc4C3CC[C@@]21C` (stereo partly drawn) [Compound 12A, (2S)-((13S,17S)-3-hydroxy-13-methyl-7,8,9,11,12,13,14,15,16,17-decahydro-6H-cyclopenta[a]-phenanthren-17-yl) 2-(4-sulfamoylbenzamido)propanoate], in test [1], the half-maximal inhibitory concentration (IC50) worked out at 250 nM. Moreover, in test [2], the change in vivo at 0.03 mg was 271%.

Consider `C[C@]12CCC3c4ccc(O)cc4CCC3C1CC[C@@H]2OC(=O)CN(Cc1cccc(S(N)(=O)=O)c1)Cc1cccc(S(N)(=O)=O)c1` (stereo partly drawn) [Compound 13A, (13S,17S)-3-hydroxy-13-methyl-7,8,9,11,12,13,14,15,16,17-decahydro-6H-cyclopenta[a]phenanthren-17-yl 2-(bis(3-sulfamoylbenzyl)amino)acetate], for which, in test [1] (read-out: hCAII (IC50 nM)), the IC50 was determined as 500 nM. The same compound yielded a change in vivo at 0.03 mg in test [2] of 136%.

Take `C[C@]12CCC3c4ccc(O)cc4CCC3C1CC[C@@H]2OC(=O)CNCc1cccc(S(N)(=O)=O)c1` (stereo partly drawn) [Compound 14A, (13S,17S)-3-hydroxy-13-methyl-7,8,9,11,12,13,14,15,16,17-decahydro-6H-cyclopenta[a]phenanthren-17-yl 2-(3-sulfamoylbenzylamino)acetate]: the half-maximal inhibitory concentration (IC50) in test [1] (read-out: hCAII (IC50 nM)) was 450 nM. Also, the change in vivo at 0.03 mg in test [2] came to 187%.

With `C[C@]12CCC3c4ccc(O)cc4CCC3C1CC[C@@H]2OC(=O)COc1ccc(S(N)(=O)=O)cc1` (stereo partly drawn) [Compound 15A, (13S,17S)-3-hydroxy-13-methyl-7,8,9,11,12,13,14,15,16,17-decahydro-6H-cyclopenta[a]phenanthren-17-yl 2-(4-sulfamoylphenoxy)acetate], the IC50 in test [1] (read-out: hCAII (IC50 nM)) amounted to 105 nM. This compound showed a change in vivo at 0.03 mg in test [2] of 152%.

As for `C[C@]12CCC3c4ccc(O)cc4CCC3C1CC[C@@H]2OC(=O)C1(S(N)(=O)=O)CC1` (stereo partly drawn) [Compound 16A, (13S,17S)-3-hydroxy-13-methyl-7,8,9,11,12,13,14,15,16,17-decahydro-6H-cyclopenta[a]phenanthren-17-yl 1-sulfamoylcyclopropanecarboxylate], in test [1] (read-out: hCAII (IC50 nM)), the IC50 is above 10000 nM. The compound further showed a change in vivo at 0.03 mg in test [2] of 314%. In addition, the oral activity entry in test [2] (oral dose, comparison in words) is on record as “comparable high oral activity”.

On to `C[C@]12CCC3c4ccc(O)cc4CCC3C1CC[C@@H]2OC(=O)COCc1ccc(S(N)(=O)=O)cc1` (stereo partly drawn) [Compound 17A, (13S,17S)-3-hydroxy-13-methyl-7,8,9,11,12,13,14,15,16,17-decahydro-6H-cyclopenta[a]phenanthren-17-yl 2-(4-sulfamoylbenzyloxy)acetate], for which the concentration for half-maximal inhibition (IC50) in test [1] (read-out: hCAII (IC50 nM)) was found to be 125 nM. The same compound yielded a change in vivo at 0.03 mg in test [2] of 133%.

As to `C[C@@H](C(=O)O[C@H]1CCC2C3CCc4cc(O)ccc4C3CC[C@@]21C)N(C)C(=O)c1ccc(S(N)(=O)=O)cc1` (stereo partly drawn) [Compound 18A, [(13S,17S)-3-hydroxy-13-methyl-6,7,8,9,11,12,14,15,16,17-decahydrocyclopenta[a]phenanthren-17-yl](2S)-2-[methyl-(4-sulfamoylbenzoyl)amino]propanoate], the IC50 in test [1] turned out to be 203 nM. This compound yielded a change in vivo at 0.01 mg in test [2] of 209%.

For the compound `CC(C)[C@H](NC(=O)c1ccc(S(N)(=O)=O)cc1)C(=O)O[C@H]1CCC2C3CCc4cc(O)ccc4C3CC[C@@]21C` (stereo partly drawn) [Compound 19A, [(13S,17S)-3-hydroxy-13-methyl-6,7,8,9,11,12,14,15,16,17-decahydrocyclopenta[a]phenanthren-17-yl] (2S)-3-methyl-2-[(4-sulfamoylbenzoyl)amino]butanoate], in test [1] (read-out: hCAII (IC50 nM)), the IC50 stood at 202 nM. The same compound gave a change in vivo at 0.01 mg in test [2] of 267%.

Take `CC(C)(NC(=O)c1ccc(S(N)(=O)=O)cc1)C(=O)O[C@H]1CCC2C3CCc4cc(O)ccc4C3CC[C@@]21C` (stereo partly drawn) [Compound 20A, [(13S,17S)-3-hydroxy-13-methyl-6,7,8,9,11,12,14,15,16,17-decahydrocyclopenta[a]phenanthren-17-yl] 2-methyl-2-[(4-sulfamoylbenzoyl)amino]propanoate]: in test [1], the IC50 turned out to be 232 nM. For the same compound, the change in vivo at 0.01 mg in test [2] was determined as 97.1%.

In the case of `C[C@]12CCC3c4ccc(O)cc4CCC3C1CC[C@@H]2OC(=O)[C@H](Cc1ccccc1)NC(=O)c1ccc(S(N)(=O)=O)cc1` (stereo partly drawn) [Compound 21A, [(13S,17S)-3-hydroxy-13-methyl-6,7,8,9,11,12,14,15,16,17-decahydrocyclopenta[a]phenanthren-17-yl] (2S)-3-phenyl-2-[(4-sulfamoylbenzoyl)amino]propanoate], the half-inhibitory concentration (IC50) in test [1] (read-out: hCAII (IC50 nM)) worked out at 100 nM. The compound further showed a change in vivo at 0.01 mg in test [2] of 117%.

Regarding `C[C@]12CCC3c4ccc(O)cc4CCC3C1CC[C@@H]2OC(=O)[C@@H]1CCCN1c1ccc(S(N)(=O)=O)cc1` (stereo partly drawn) [Compound 22A, [(13S,17S)-3-hydroxy-13-methyl-6,7,8,9,11,12,14,15,16,17-decahydrocyclopenta[a]phenanthren-17-yl] 1-(4-sulfamoylphenyl)pyrrolidine-2-carboxylate], the IC50 in test [1] (read-out: hCAII (IC50 nM)) was 198 nM. This compound displayed a change in vivo at 0.01 mg in test [2] of 91.6%.

For the compound `C[C@]12CCC3c4ccc(O)cc4CCC3C1CC[C@@H]2OC(=O)[C@@H]1CCCN1Cc1ccc(S(N)(=O)=O)cc1` (stereo partly drawn) [Compound 23A, [(13S,17S)-3-hydroxy-13-methyl-6,7,8,9,11,12,14,15,16,17-decahydrocyclopenta[a]phenanthren-17-yl] 1-[(4-sulfamoylphenyl)methyl]pyrrolidine-2-carboxylate], in test [1] (read-out: hCAII (IC50 nM)), the half-maximal inhibitory concentration (IC50) amounted to 129 nM. In addition, the change in vivo at 0.01 mg in test [2] is 272%.

As for `C[C@]12CC[C@@H]3c4ccc(O)cc4CC[C@H]3[C@@H]1CC[C@@H]2O` [Compound E2, estradiol, reference compound], the change in vivo at 0.01 mg in test [2] is 118%.

`C#C[C@]1(O)CC[C@H]2[C@@H]3CCc4cc(O)ccc4[C@H]3CC[C@@]21C` [EE, ethinyl estradiol, reference compound]: the change in vivo at 0.01 mg in test [2] is 154%.
